Source: the supplement of paper PMC10132981, “Formate overflow drives toxic folate trapping in MTHFD1 inhibited cancer cells” (Nature Metabolism, 2023)
Values joined by “and” are separate entries in the source; they are usually repeats but may differ in a detail not shown here. Equal entries are not always repeated.

Tests used:
SW620 MTHFD2-/- = assay: cell viability relative to vehicle (resazurin, 96 h); higher = more viable; conditions: base medium: RPMI + dialysed FBS
Protocol: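 SW620 WT or MTHFD2-/- cells were treated for 96 h with a compound dilution series (log10 M) in RPMI with normal or dialysed FBS. Viability was read by resazurin and is given as % of vehicle.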

SW620 = assay: cell viability relative to lowest-dose well (resazurin, 96 h); higher = more viable; conditions: RPMI + 10% FBS
Summary of the method: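 Compounds from 10 mM DMSO stocks were dispensed as dilution series onto HCT116 (500 cells/well) or SW620 (1,000 cells/well) cells growing in 384-well plates in 50 µl RPMI, 10% FBS and a metabolite supplement. Plates were incubated 96 h at 37 °C, 5% CO2, then resazurin (10 µg ml^−1) was added and its conversion to resorufin read by fluorescence at 595 nm after 5 h. Viability is shown as percent of the lowest-dose well for independent replicate cultures.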

CN(Cc1cnc2nc(N)nc(N)c2n1)c1ccc(C(=O)N[C@@H](CCC(=O)O)C(=O)O)cc1 [methotrexate]
SW620 MTHFD2-/-
Conditions	cell viability [%]
log10 compound concentration (M): -6, supplement / serum: 50 μM Hypoxanthine	6.45
log10 compound concentration (M): -6, supplement / serum: 50 μM Thymidine	6.68
log10 compound concentration (M): -6, supplement / serum: 50 μM Thymidine + 50 μM Hypoxanthine	111
log10 compound concentration (M): -6, supplement / serum: Hypoxanthine	6.76
log10 compound concentration (M): -6, supplement / serum: Hypoxanthine+Sodium Formate	6.18
log10 compound concentration (M): -6, supplement / serum: Hypoxanthine+Sodium Formate+Thymidine	93.3
log10 compound concentration (M): -6, supplement / serum: No metabolite	7.7
log10 compound concentration (M): -6, supplement / serum: Sodium Formate	7.05
log10 compound concentration (M): -6, supplement / serum: Vehicle	7.38
log10 compound concentration (M): -6.47712, supplement / serum: 50 μM Hypoxanthine	6.99
log10 compound concentration (M): -6.47712, supplement / serum: 50 μM Thymidine	7.63
log10 compound concentration (M): -6.47712, supplement / serum: 50 μM Thymidine + 50 μM Hypoxanthine	115
log10 compound concentration (M): -6.47712, supplement / serum: Hypoxanthine	7.12
log10 compound concentration (M): -6.47712, supplement / serum: Hypoxanthine+Sodium Formate	6.79
log10 compound concentration (M): -6.47712, supplement / serum: Hypoxanthine+Sodium Formate+Thymidine	112
log10 compound concentration (M): -6.47712, supplement / serum: No metabolite	7.99
log10 compound concentration (M): -6.47712, supplement / serum: Sodium Formate	7.19
log10 compound concentration (M): -6.47712, supplement / serum: Vehicle	7.78
log10 compound concentration (M): -6.95424, supplement / serum: 50 μM Hypoxanthine	7.25
log10 compound concentration (M): -6.95424, supplement / serum: 50 μM Thymidine	7.71
log10 compound concentration (M): -6.95424, supplement / serum: 50 μM Thymidine + 50 μM Hypoxanthine	111
log10 compound concentration (M): -6.95424, supplement / serum: Hypoxanthine	7.47
log10 compound concentration (M): -6.95424, supplement / serum: Hypoxanthine+Sodium Formate	7.62
log10 compound concentration (M): -6.95424, supplement / serum: Hypoxanthine+Sodium Formate+Thymidine	107
log10 compound concentration (M): -6.95424, supplement / serum: No metabolite	8.02
log10 compound concentration (M): -6.95424, supplement / serum: Sodium Formate	7.59
log10 compound concentration (M): -6.95424, supplement / serum: Vehicle	7.71
log10 compound concentration (M): -7.43136, supplement / serum: 50 μM Hypoxanthine	14.5
log10 compound concentration (M): -7.43136, supplement / serum: 50 μM Thymidine	7.18
log10 compound concentration (M): -7.43136, supplement / serum: 50 μM Thymidine + 50 μM Hypoxanthine	95.6
log10 compound concentration (M): -7.43136, supplement / serum: Hypoxanthine	11.5
log10 compound concentration (M): -7.43136, supplement / serum: Hypoxanthine+Sodium Formate	11.1
log10 compound concentration (M): -7.43136, supplement / serum: Hypoxanthine+Sodium Formate+Thymidine	98.6
log10 compound concentration (M): -7.43136, supplement / serum: No metabolite	7.722
log10 compound concentration (M): -7.43136, supplement / serum: Sodium Formate	7.53
log10 compound concentration (M): -7.43136, supplement / serum: Vehicle	7.22
log10 compound concentration (M): -7.90849, supplement / serum: 50 μM Hypoxanthine	70.7
log10 compound concentration (M): -7.90849, supplement / serum: 50 μM Thymidine	12.3
log10 compound concentration (M): -7.90849, supplement / serum: 50 μM Thymidine + 50 μM Hypoxanthine	106
log10 compound concentration (M): -7.90849, supplement / serum: Hypoxanthine	54.5
log10 compound concentration (M): -7.90849, supplement / serum: Hypoxanthine+Sodium Formate	55.4
log10 compound concentration (M): -7.90849, supplement / serum: Hypoxanthine+Sodium Formate+Thymidine	102
log10 compound concentration (M): -7.90849, supplement / serum: No metabolite	10.5
log10 compound concentration (M): -7.90849, supplement / serum: Sodium Formate	11.5
log10 compound concentration (M): -7.90849, supplement / serum: Vehicle	8.29
log10 compound concentration (M): -8.38561, supplement / serum: 50 μM Hypoxanthine	76.3
log10 compound concentration (M): -8.38561, supplement / serum: 50 μM Thymidine	14.7
log10 compound concentration (M): -8.38561, supplement / serum: 50 μM Thymidine + 50 μM Hypoxanthine	102
log10 compound concentration (M): -8.38561, supplement / serum: Hypoxanthine	74.7
log10 compound concentration (M): -8.38561, supplement / serum: Hypoxanthine+Sodium Formate	79.4
log10 compound concentration (M): -8.38561, supplement / serum: Hypoxanthine+Sodium Formate+Thymidine	84.7
log10 compound concentration (M): -8.38561, supplement / serum: No metabolite	9.121
log10 compound concentration (M): -8.38561, supplement / serum: Sodium Formate	33.1
log10 compound concentration (M): -8.38561, supplement / serum: Vehicle	15.5
log10 compound concentration (M): -8.86273, supplement / serum: 50 μM Hypoxanthine	92.6
log10 compound concentration (M): -8.86273, supplement / serum: 50 μM Thymidine	66.7
log10 compound concentration (M): -8.86273, supplement / serum: 50 μM Thymidine + 50 μM Hypoxanthine	109
log10 compound concentration (M): -8.86273, supplement / serum: Hypoxanthine	92.5
log10 compound concentration (M): -8.86273, supplement / serum: Hypoxanthine+Sodium Formate	97.5
log10 compound concentration (M): -8.86273, supplement / serum: Hypoxanthine+Sodium Formate+Thymidine	91.4
log10 compound concentration (M): -8.86273, supplement / serum: No metabolite	47.4
log10 compound concentration (M): -8.86273, supplement / serum: Sodium Formate	72.7
log10 compound concentration (M): -8.86273, supplement / serum: Vehicle	45.5
log10 compound concentration (M): -9.33985, supplement / serum: 50 μM Hypoxanthine	100
log10 compound concentration (M): -9.33985, supplement / serum: 50 μM Thymidine	87.7
log10 compound concentration (M): -9.33985, supplement / serum: 50 μM Thymidine + 50 μM Hypoxanthine	102
log10 compound concentration (M): -9.33985, supplement / serum: Hypoxanthine	92.7
log10 compound concentration (M): -9.33985, supplement / serum: Hypoxanthine+Sodium Formate	96.4
log10 compound concentration (M): -9.33985, supplement / serum: Hypoxanthine+Sodium Formate+Thymidine	98.6
log10 compound concentration (M): -9.33985, supplement / serum: No metabolite	82.1
log10 compound concentration (M): -9.33985, supplement / serum: Sodium Formate	101
log10 compound concentration (M): -9.33985, supplement / serum: Vehicle	80.1
log10 compound concentration (M): -9.81697, supplement / serum: 50 μM Hypoxanthine	95.3
log10 compound concentration (M): -9.81697, supplement / serum: 50 μM Thymidine	109.8
log10 compound concentration (M): -9.81697, supplement / serum: 50 μM Thymidine + 50 μM Hypoxanthine	104
log10 compound concentration (M): -9.81697, supplement / serum: Hypoxanthine	102
log10 compound concentration (M): -9.81697, supplement / serum: Hypoxanthine+Sodium Formate	100
log10 compound concentration (M): -9.81697, supplement / serum: Hypoxanthine+Sodium Formate+Thymidine	98.5
log10 compound concentration (M): -9.81697, supplement / serum: No metabolite	97.9
log10 compound concentration (M): -9.81697, supplement / serum: Sodium Formate	97.9
log10 compound concentration (M): -9.81697, supplement / serum: Vehicle	94.8
log10 compound concentration (M): -10.2941, supplement / serum: 50 μM Hypoxanthine	105
log10 compound concentration (M): -10.2941, supplement / serum: 50 μM Thymidine	93.5
log10 compound concentration (M): -10.2941, supplement / serum: 50 μM Thymidine + 50 μM Hypoxanthine	103
log10 compound concentration (M): -10.2941, supplement / serum: Hypoxanthine	91
log10 compound concentration (M): -10.2941, supplement / serum: Hypoxanthine+Sodium Formate	96.2
log10 compound concentration (M): -10.2941, supplement / serum: Hypoxanthine+Sodium Formate+Thymidine	100
log10 compound concentration (M): -10.2941, supplement / serum: No metabolite	94.6
log10 compound concentration (M): -10.2941, supplement / serum: Sodium Formate	95.9
log10 compound concentration (M): -10.2941, supplement / serum: Vehicle	87.6
log10 compound concentration (M): -10.7712, supplement / serum: 50 μM Hypoxanthine	88.2
log10 compound concentration (M): -10.7712, supplement / serum: 50 μM Thymidine	96.2
log10 compound concentration (M): -10.7712, supplement / serum: 50 μM Thymidine + 50 μM Hypoxanthine	110
log10 compound concentration (M): -10.7712, supplement / serum: Hypoxanthine	98.1
log10 compound concentration (M): -10.7712, supplement / serum: Hypoxanthine+Sodium Formate	92.28
log10 compound concentration (M): -10.7712, supplement / serum: Hypoxanthine+Sodium Formate+Thymidine	103
log10 compound concentration (M): -10.7712, supplement / serum: No metabolite	111
log10 compound concentration (M): -10.7712, supplement / serum: Sodium Formate	95
log10 compound concentration (M): -10.7712, supplement / serum: Vehicle	95.6

cell viability, SW620
Conditions	0.001 µM	0.00278 µM	0.00774 µM	0.0215 µM	0.0599 µM	0.167 µM	0.464 µM	1.29 µM	3.59 µM	10 µM
metabolite supplement: 1uM folinic acid	101%	101%	100%	100%	96.1%	85.3%	59.2%	51.8%	48.7%	31.6%
metabolite supplement: 50uM thymidine	95.8%	96.1%	73.1%	55%	30.1%	26.8% and 27.8%	27.5%	26%	26.7%	26.6%
metabolite supplement: 50uM thymidine + 1uM folinic acid	102%	102%	101%	103%	102%	85.4%	68.2%	49.2%	43.4%	39.9%
metabolite supplement: 50uM thymidine + 250uM folic acid	–	–	98.6%	94.3%	79.3%	45.2%	37.4%	37.2%	35.5%	35.5%
metabolite supplement: 250uM folic acid	–	–	98.4%	89.1%	78%	47.8%	29.7%	27.5%	27.3%	27.3%
metabolite supplement: vehicle	96.5%	93.7%	70.1%	39.2%	29.9% and 27.9%	32% and 27.2%	27.4%	26.9%	25.7%	26%
